Converted amounts (≈) assume the structure as drawn. Where a name gives a salt, the structure may show the parent alone. Read-outs that look alike come from different tables or passages of the source. Where a SMILES comes first, the peptide text is derived from it.
Assays:
SARS-CoV-2 [1] = tested on: SARS-CoV-2
A(H7N9) virus [2] = tested on: A(H7N9) virus
in vitro [3] = details: African green monkey
[4] = tested on: endosomal acidification in MDCK cells; assay type: cell-based, canine
MERS-CoV [5] = tested on: MERS-CoV
parainfluenza 3 (Para-3) = assay type: cell-based; details: 24 h post-infection
SARS-CoV [6] = assay type: binding
rhinovirus [7] = tested on: rhinovirus
A(H7N9) virus [8] = assay type: binding
in vitro [9] = details: dog
rhinovirus [10] = assay type: binding; details: peptide coated on ELISA plate, bound virus by RT-qPCR
H1N1 HA1 protein = H1N1 HA1 protein (Influenza A virus, UniProt C3W5S1)
A(H1N1)pdm09 virus [11] = assay type: cell-based
MERS-CoV [12] = assay type: binding
rhinovirus [13] = tested on: rhinovirus; remark: listed apart in the source
in vitro [14] = details: human
A(H1N1)pdm09 virus [15] = assay type: binding
MERS-CoV S protein = MERS-CoV S protein (Middle East respiratory syndrome-related coronavirus, UniProt K9N5Q8)
SARS-CoV-2 [16] = assay type: binding
[17] = tested on: virus-host endosomal acidification; assay type: cell-based
SARS-CoV-2 [18] = assay: microbe, parasite or virus in culture; assay type: cell-based
[19] = in vivo; cited from earlier work
[20] = tested on: spike-ACE2 mediated cell fusion; assay type: cell-based, human
SARS-CoV-2 [21] = details: cited from earlier work
SARS-CoV-2 [22] = details: cited from earlier work; remark: listed apart in the source
SARS-CoV [23] = tested on: SARS-CoV; design: species or system mice; details: in vivo
SARS-CoV-2 [24] = tested on: SARS-CoV-2; design: species or system hamsters; details: in vivo
SARS-CoV [25] = assay type: cell-based
SARS-CoV-2 [26] = assay type: cell-based

Sequence of MERS-CoV S protein (K9N5Q8 18-1353 limits assumed): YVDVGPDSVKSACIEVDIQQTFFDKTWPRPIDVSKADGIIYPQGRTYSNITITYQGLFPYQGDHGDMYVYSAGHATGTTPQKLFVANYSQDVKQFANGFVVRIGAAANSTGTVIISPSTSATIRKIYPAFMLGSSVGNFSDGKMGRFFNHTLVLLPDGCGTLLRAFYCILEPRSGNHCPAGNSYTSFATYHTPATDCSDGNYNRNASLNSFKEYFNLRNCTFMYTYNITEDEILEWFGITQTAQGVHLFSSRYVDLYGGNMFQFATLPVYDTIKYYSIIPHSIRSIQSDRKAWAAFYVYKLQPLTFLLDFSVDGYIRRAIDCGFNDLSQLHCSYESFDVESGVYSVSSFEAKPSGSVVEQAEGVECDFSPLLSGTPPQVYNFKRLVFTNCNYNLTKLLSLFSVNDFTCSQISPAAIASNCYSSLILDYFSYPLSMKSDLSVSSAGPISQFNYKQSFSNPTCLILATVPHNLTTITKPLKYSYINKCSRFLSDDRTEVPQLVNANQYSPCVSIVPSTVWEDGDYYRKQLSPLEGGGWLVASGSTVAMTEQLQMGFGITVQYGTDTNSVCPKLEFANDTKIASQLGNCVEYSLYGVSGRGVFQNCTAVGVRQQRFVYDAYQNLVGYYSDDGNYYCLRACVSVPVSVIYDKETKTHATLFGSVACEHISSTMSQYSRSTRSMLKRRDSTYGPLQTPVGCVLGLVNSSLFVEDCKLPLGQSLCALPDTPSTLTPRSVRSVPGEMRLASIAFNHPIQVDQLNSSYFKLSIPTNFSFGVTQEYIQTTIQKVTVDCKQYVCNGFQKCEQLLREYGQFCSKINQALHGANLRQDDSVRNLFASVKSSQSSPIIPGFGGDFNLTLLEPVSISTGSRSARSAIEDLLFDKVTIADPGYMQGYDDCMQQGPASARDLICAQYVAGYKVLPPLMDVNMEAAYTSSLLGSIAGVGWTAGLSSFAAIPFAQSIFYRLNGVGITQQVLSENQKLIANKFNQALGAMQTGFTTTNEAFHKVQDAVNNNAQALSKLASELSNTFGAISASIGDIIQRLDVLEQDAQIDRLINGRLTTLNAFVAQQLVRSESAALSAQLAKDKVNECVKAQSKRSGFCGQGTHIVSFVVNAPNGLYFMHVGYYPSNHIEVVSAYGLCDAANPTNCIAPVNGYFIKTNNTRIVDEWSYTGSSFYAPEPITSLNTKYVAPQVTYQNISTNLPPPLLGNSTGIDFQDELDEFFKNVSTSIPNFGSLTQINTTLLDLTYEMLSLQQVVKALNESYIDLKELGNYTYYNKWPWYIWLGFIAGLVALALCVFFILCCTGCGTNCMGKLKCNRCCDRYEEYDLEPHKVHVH
Sequence of H1N1 HA1 protein (C3W5S1 18-344 limits assumed): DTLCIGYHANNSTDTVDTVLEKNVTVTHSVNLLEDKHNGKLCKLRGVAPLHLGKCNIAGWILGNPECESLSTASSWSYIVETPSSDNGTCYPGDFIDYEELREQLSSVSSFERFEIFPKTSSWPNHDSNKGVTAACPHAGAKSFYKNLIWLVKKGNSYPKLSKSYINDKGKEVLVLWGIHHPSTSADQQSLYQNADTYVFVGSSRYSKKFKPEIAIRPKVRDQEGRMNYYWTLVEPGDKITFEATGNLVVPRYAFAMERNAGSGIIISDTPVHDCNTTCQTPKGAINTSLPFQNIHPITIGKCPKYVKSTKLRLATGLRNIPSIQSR

CC[C@H](C)[C@H](NC(=O)[C@H](C)NC(=O)CNC(=O)[C@@H](N)CC(N)=O)C(=O)N[C@@H](CS)C(=O)N[C@@H](Cc1c[nH]c2ccccc12)C(=O)NCC(=O)N1CCC[C@H]1C(=O)N[C@@H](CS)C(=O)N1CCC[C@H]1C(=O)N[C@H](C(=O)N[C@@H](C)C(=O)N[C@@H](Cc1ccccc1)C(=O)N[C@@H](CCCNC(=N)N)C(=O)N[C@@H](CCC(N)=O)C(=O)N[C@H](C(=O)NCC(=O)N[C@@H](CC(N)=O)C(=O)N[C@@H](CS)C(=O)NCC(=O)N[C@@H](Cc1c[nH]cn1)C(=O)N[C@@H](Cc1ccccc1)C(=O)N[C@@H](CCCCN)C(=O)N[C@H](C(=O)N[C@@H](CCCNC(=N)N)C(=O)N[C@@H](CS)C(=O)N[C@@H](CS)C(=O)N[C@@H](CCCCN)C(=O)N[C@H](C(=O)N[C@@H](CCCNC(=N)N)C(=O)O)[C@@H](C)CC)C(C)C)[C@@H](C)CC)[C@@H](C)O [P9, reference compound]
IC50 against SARS-CoV-2 (SARS-CoV-2 [1]): 2.4 µg/mL (≈ 0.719 µM) | IC50 against parainfluenza virus 3 (parainfluenza virus 3): > 25.0 µg/mL

CC[C@H](C)[C@H](NC(=O)[C@H](C)NC(=O)CNC(=O)[C@@H](N)CC(N)=O)C(=O)N[C@@H](CS)C(=O)N[C@@H](Cc1c[nH]c2ccccc12)C(=O)NCC(=O)N1CCC[C@H]1C(=O)N[C@@H](CS)C(=O)N1CCC[C@H]1C(=O)N[C@H](C(=O)N[C@@H](C)C(=O)N[C@@H](Cc1ccccc1)C(=O)N[C@@H](CCCNC(=N)N)C(=O)N[C@@H](CCC(N)=O)C(=O)N[C@H](C(=O)NCC(=O)N[C@@H](CC(N)=O)C(=O)N[C@@H](CS)C(=O)NCC(=O)N[C@@H](CCCNC(=N)N)C(=O)N[C@@H](Cc1ccccc1)C(=O)N[C@@H](CCCNC(=N)N)C(=O)N[C@H](C(=O)N[C@@H](CCCNC(=N)N)C(=O)N[C@@H](CS)C(=O)N[C@@H](CS)C(=O)N[C@@H](CCCNC(=N)N)C(=O)N[C@H](C(=O)N[C@@H](CCCNC(=N)N)C(=O)O)[C@@H](C)CC)C(C)C)[C@@H](C)CC)[C@@H](C)O [P9R] (H-NGAICWGPCPTAFRQIGNCGRFRVRCCRIR-OH)
inhibition against A(H7N9) virus compared with P9 (A(H7N9) virus [2]): significantly stronger inhibition | CC50 at 24 h (in vitro [3]): > 300 µg/mL | IC50 against SARS-CoV-2 (SARS-CoV-2 [1]): 0.9 µg/mL (≈ 0.264 µM) | inhibition of endosomal acidification (no-virus endosomes) [4]: could more significantly inhibit endosomal acidification | inhibition against MERS-CoV compared with P9 (MERS-CoV [5]): significantly stronger inhibition | parainfluenza 3 viral RNA in LLC-MK2 cells (parainfluenza 3 (Para-3)): inhibits parainfluenza 3 in LLC-MK2 cells | binding to SARS-CoV (SARS-CoV [6]): could also bind | inhibition of viral replication, rhinovirus (rhinovirus [7]): > 20 fold | binding to A(H7N9) virus (A(H7N9) virus [8]): could also bind | CC50 at 24 h (in vitro [9]): > 300 µg/mL | binding to rhinovirus (rhinovirus [10]): could also bind | binding to viral proteins: H1N1 HA1 protein (H1N1 HA1 protein): could also bind | inhibition against A(H1N1)pdm09 virus compared with P9 (A(H1N1)pdm09 virus [11]): significantly stronger inhibition | binding to MERS-CoV (MERS-CoV [12]): could also bind | inhibition against rhinovirus compared with P9 (rhinovirus [13]): significantly stronger inhibition | CC50 at 24 h (in vitro [14]): > 300 µg/mL | binding to A(H1N1)pdm09 virus (A(H1N1)pdm09 virus [15]): could efficiently bind | binding to viral proteins: MERS-CoV S protein (MERS-CoV S protein): could also bind | binding to SARS-CoV-2 (SARS-CoV-2 [16]): could efficiently bind | inhibition of virus-host endosomal acidification [17]: could efficiently inhibit

CCOC(=O)c1c(CSc2ccccc2)n(C)c2cc(Br)c(O)c(CN(C)C)c12 [arbidol]
IC50 (SARS-CoV-2 [18]; Severe acute respiratory syndrome coronavirus 2, Vero C1008, 24 h, read-out: normal IC50 of arbidol against SARS-CoV-2): 3.6 µg/mL (≈ 7.54 µM) | peak serum concentration [19]: lower than 2 μg ml-1

CO/C1=C\C(C)=C\[C@@H](C)[C@@H](O)[C@@H](C)C/C(C)=C/C=C/[C@H](OC)[C@@H]([C@@H](C)[C@@H](O)[C@H](C)[C@@]2(O)C[C@@H](O)[C@H](C)[C@@H](C(C)C)O2)OC1=O [bafilomycin A1, reference compound]
spike-ACE2 mediated cell membrane fusion [20]: could inhibit spike-ACE2 mediated cell membrane fusion | inhibition of virus-host endosomal acidification [17]: could efficiently inhibit

CN(C)C(=O)COC(=O)Cc1ccc(OC(=O)c2ccc(NC(=N)N)cc2)cc1 [camostat, Camostat mesylate]
SARS-CoV-2 replication in Calu-3 cells (SARS-CoV-2 [21]): could significantly inhibit SARS-CoV-2 replication in Calu-3 cells | SARS-CoV-2 replication in Vero-E6 cells (SARS-CoV-2 [22]): could not inhibit SARS-CoV-2 replication | SARS-CoV replication in mouse lungs (SARS-CoV [23]): could not inhibit viral replication | SARS-CoV-2 replication in hamster lungs (SARS-CoV-2 [24]): could not significantly inhibit SARS-CoV-2 replication in hamsters

CCN(CC)CCCC(C)Nc1ccnc2cc(Cl)ccc12 (stereo not shown) [chloroquine]
enhancement of antiviral activity of arbidol against SARS-CoV (SARS-CoV [25]): could significantly enhance the antiviral activity of arbidol | SARS-CoV-2 replication in Calu-3 cells (SARS-CoV-2 [21]): did not inhibit SARS-CoV-2 replication in Calu-3 cells | SARS-CoV replication in mouse lungs (SARS-CoV [23]): could not inhibit SARS-CoV replication in mouse lungs | SARS-CoV-2 replication in Calu-3 cells (SARS-CoV-2 [26]): not in Calu-3 cells | SARS-CoV-2 replication in Vero-E6 cells (SARS-CoV-2 [18]): could significantly inhibit SARS-CoV-2 replication in Vero-E6 cells | enhancement of antiviral activity of arbidol against SARS-CoV-2 (SARS-CoV-2 [18]): could significantly enhance the antiviral activity of arbidol | SARS-CoV-2 replication in hamster lungs (SARS-CoV-2 [24]): could not significantly inhibit SARS-CoV-2 replication in hamsters
